Consider eight compounds from patent US20240381872A1, “SUBSTITUTED 2,3-DIHYDRO[1,3]THIAZOLO[4,5-B]PYRIDINES, SALTS THEREOF AND THEIR USE AS HERBICIDALLY ACTIVE SUBSTANCES” (BAYER AKTIENGESELLSCHAFT, priority 2021, published 2024).

What all share (assay type): in vivo
One assay has as its system Setaria viridis (SETVI). The experiment in a line: Herbicidal pre-emergence action, section A (Table A8). The source says: (§1) Seeds of mono- and dicotyledonous weed plants were sown in plastic pots (double sowings with one species of mono- and one species of dicotyledonous weed plants per pot), in sandy loam, and covered with soil. The compounds according to the invention, formulated in the form of wettable powders (WP) or as emulsifiable concentrates (EC), were applied to the surface of the covering soil as aqueous suspension or emulsion, with the addition of 0.5% of an additive, at an application rate of 600 l of water per hectare (converted). Following treatment, the pots were placed in a greenhouse and kept under optimum growth conditions for the test plants. The visual grading of the damage to the test plants was carried out after ca. 3 weeks in comparison to untreated controls (herbicidal effect in percent (%): 100% effect=plants have died off, 0% effect=as control plants).

For assay [1], the system named is Kochia scoparia (KCHSC). The experiment in a line: Herbicidal post-emergence action, section B (Table B4). The conditions noted are these: application rate 1280 g/ha, visual rating about 3 weeks after treatment vs untreated controls. As for the experimental part:
(§2) Seeds of mono- and dicotyledonous weed plants were placed in plastic pots in sandy loam soil (doubly sown with in each case one species of mono- or dicotyledonous weed plants per pot), covered with soil and cultivated in a greenhouse under controlled growth conditions. 2 to 3 weeks after sowing, the test plants were treated at the one-leaf stage. The compounds of the invention, formulated in the form of wettable powders (WP) or as emulsion concentrates (EC), were applied onto the green parts of the plants as aqueous suspension or emulsion with addition of 0.5% additive at a water application rate of 600 liters per hectare (converted). After the test plants had been kept in the greenhouse under optimum growth conditions for about 3 weeks, the activity of the preparations was rated visually in comparison to untreated controls. For example, 100% activity=the plants have died, 0% activity=like control plants.

In assay [2] the test system is Amaranthus retroflexus (AMARE). The experiment in a line: Herbicidal pre-emergence action, section A (Table A11).
Text: as §1

Assay [3] has as its system Poa annua (POAAN). The experiment in a line: Herbicidal pre-emergence action, section A (Table A7). The following applies: visual grading after ca. 3 weeks vs untreated controls; for pre-emergence activity against POAAN in %: application rate 1280 g/ha.
Text: as §1

Assay [4] concerns Echinochloa crus-galli (ECHCG). The experiment in a line: Herbicidal pre-emergence action, section A (Table A3). The following applies: application rate 1280 g/ha, visual grading after ca. 3 weeks vs untreated controls; for pest or weed control at 1280 g/ha: Echinochloa crus-galli, pre-emergence, 504 h, read-out: pre-emergence activity against ECHCG in %.
Text: as §1

Assay [5] has as its system Stellaria media (STEME). The experiment in a line: Herbicidal post-emergence action, section B (Table B9). The following applies: application rate 1280 g/ha; visual rating about 3 weeks after treatment vs untreated controls. As for the experimental part: as §2
In assay [6] the test system is Amaranthus retroflexus (AMARE). The experiment in a line: Herbicidal post-emergence action, section B (Table B11). The conditions noted are these: application rate 1280 g/ha; visual rating about 3 weeks after treatment vs untreated controls. How it is done: as §2
The subject of assay [7] is Kochia scoparia (KCHSC). The assay can be described thus: Herbicidal pre-emergence action, section A (Table A4). The conditions noted are these: application rate 1280 g/ha, visual grading after ca. 3 weeks vs untreated controls.
Text: as §1

The subject of assay [8] is Digitaria sanguinalis (DIGSA). The experiment in a line: Herbicidal pre-emergence action, section A (Table A12). The conditions noted are these: application rate 1280 g/ha; for pest or weed control at 1280 g/ha: Digitaria sanguinalis, 504 h, read-out: pre-emergence activity against DIGSA in %.
Text: as §1

In assay [9] the test system is Poa annua (POAAN). The assay can be described thus: Herbicidal post-emergence action, section B (Table B7). The conditions noted are these: application rate 1280 g/ha; visual rating about 3 weeks after treatment vs untreated controls. As for the experimental part: as §2
Assay [10] has as its system Stellaria media (STEME). The experiment in a line: Herbicidal pre-emergence action, section A (Table A9). The following applies: for pre-emergence activity against STEME in %: application rate 1280 g/ha.
Text: as §1

The test system of a further assay is Lolium rigidum (LOLRI). The assay can be described thus: Herbicidal pre-emergence action, section A (Table A5). The following applies: application rate 1280 g/ha, visual grading after ca. 3 weeks vs untreated controls; for pest or weed control at 1280 g/ha: Lolium rigidum, pre-emergence, 504 h, read-out: pre-emergence activity against LOLRI in %.
Text: as §1

Assay [11] concerns Veronica persica (VERPE). The assay can be described thus: Herbicidal pre-emergence action, section A (Table A10). The conditions noted are these: application rate 1280 g/ha.
Text: as §1

The test system of assay [12] is Matricaria inodora (MATIN). The assay can be described thus: Herbicidal pre-emergence action, section A (Table A6). The conditions noted are these: Tripleurospermum inodorum, pre-emergence, 504 h; application rate 1280 g/ha; visual grading after ca. 3 weeks vs untreated controls; read-out: pre-emergence activity against MATIN in %.
Text: as §1

The subject of assay [13] is Veronica persica (VERPE). The assay can be described thus: Herbicidal post-emergence action, section B (Table B10). The conditions noted are these: application rate 1280 g/ha; visual rating about 3 weeks after treatment vs untreated controls. As for the experimental part:
as §2

As for `Fc1c(Cl)cccc1-c1nc2c(cc1Br)SCN2` [Example I-103], in the assay with Setaria viridis (SETVI) (application rate 1280 g/ha), the “pre-emergence activity against SETVI in %” value amounted to 100%. Moreover, in the assay with Kochia scoparia (KCHSC) [1], the “post-emergence activity against KCHSC in %” value turned out to be 90%. The “pre-emergence activity against AMARE in %” value in assay [2] (application rate 1280 g/ha) is listed as 90%. Also, the “pre-emergence activity against POAAN in %” value in the assay with Poa annua (POAAN) [3] is reported as 100%. In assay [4], the “pre-emergence activity against ECHCG in %” value is 90%. Moreover, the “post-emergence activity against STEME in %” value in the assay on Stellaria media (STEME) [5] is listed as 90%.

On to `O=C(c1ccccc1C(F)(F)F)N1CSc2cc(Br)c(-c3ccc(F)cc3F)nc21` [Example I-043], for which, in [6], the “post-emergence activity against AMARE in %” value was found to be 90%. For the same compound, the “pre-emergence activity against POAAN in %” value in the assay with Poa annua (POAAN) [3] came to 90%.

With `COCCOCCOCC(=O)N1CSc2cc(C)c(-c3cccc(F)c3F)nc21` [Example I-149], the “pre-emergence activity against SETVI in %” value with Setaria viridis (SETVI) (application rate 320 g/ha) was found to be 100%. For the same compound, the “pre-emergence activity against KCHSC in %” value in the assay on Kochia scoparia (KCHSC) [7] was 90%. For the same compound, the “pre-emergence activity against AMARE in %” value in [2] (application rate 320 g/ha) came to 90%. Also, the “pre-emergence activity against POAAN in %” value with Poa annua (POAAN) [3] is on record as 100%. Also, the “pre-emergence activity against DIGSA in %” value in [8] is given as 100%. The “post-emergence activity against POAAN in %” value with Poa annua (POAAN) [9] worked out at 90%. Besides, in the assay with Stellaria media (STEME) [10], the “pre-emergence activity against STEME in %” value is 90%. Besides, the “pre-emergence activity against LOLRI in %” value with Lolium rigidum (LOLRI) came to 90%. Further, the “pre-emergence activity against VERPE in %” value in the assay on Veronica persica (VERPE) [11] is given as 90%. For the same compound, in [4], the “pre-emergence activity against ECHCG in %” value turned out to be 100%.

As for `Cc1cccc(-c2nc3c(cc2Br)SCN3C(=O)C2(C)CC(Cl)=NO2)c1C` (stereo not shown) [Example I-140], in assay [2] (application rate 1280 g/ha), the “pre-emergence activity against AMARE in %” value turned out to be 90%. The “pre-emergence activity against POAAN in %” value with Poa annua (POAAN) [3] is on record as 100%. The “pre-emergence activity against STEME in %” value in the assay on Stellaria media (STEME) [10] amounted to 90%.

Take `COc1ccccc1-c1nc2c(cc1C)[S+]([O-])CN2S(C)(=O)=O` (stereo not shown) [Example I-101]: the pest or weed control at 320 g/ha in the assay with Setaria viridis (SETVI) (Setaria viridis, 504 h, application rate 320 g/ha, read-out: pre-emergence activity against SETVI in %) amounted to 100%. Also, the pest or weed control at 1280 g/ha with Kochia scoparia (KCHSC) [1] (Bassia scoparia, post-emergence, 504 h, read-out: post-emergence activity against KCHSC in %) was found to be 90%; with Kochia scoparia (KCHSC) [7] (Bassia scoparia, pre-emergence, 504 h, read-out: pre-emergence activity against KCHSC in %), 90%; in assay [2] (Amaranthus retroflexus, 504 h, application rate 1280 g/ha, read-out: pre-emergence activity against AMARE in %) it was 90%; in [8], 90%; in the assay with Lolium rigidum (LOLRI) it was 100%; in [4], 90%.

Take `CCC(=O)N1C[S+]([O-])c2cc(C)c(-c3cc(F)ccc3F)nc21` (stereo not shown) [Example I-167]: the pest or weed control at 1280 g/ha came to 90% in the assay on Setaria viridis (SETVI) (Setaria viridis, 504 h, application rate 1280 g/ha, read-out: pre-emergence activity against SETVI in %); 90% in assay [12]; 100% in assay [8]; 100% in the assay with Lolium rigidum (LOLRI); 90% in the assay on Veronica persica (VERPE) [11] (Veronica persica, 504 h, read-out: pre-emergence activity against VERPE in %); 100% in [4]. Besides, the pest or weed control at 320 g/ha in [2] (Amaranthus retroflexus, 504 h, application rate 320 g/ha, read-out: pre-emergence activity against AMARE in %) worked out at 90%; in the assay on Poa annua (POAAN) [3] (Poa annua, pre-emergence, 504 h, application rate 320 g/ha, read-out: pre-emergence activity against POAAN in %), 100%; in the assay with Stellaria media (STEME) [10] (Stellaria media, 504 h, application rate 320 g/ha, read-out: pre-emergence activity against STEME in %), 90%.

Take `Cc1cc2c(nc1-c1cccc(Cl)c1F)N(S(C)(=O)=O)CS2` [Example I-111]: the “post-emergence activity against KCHSC in %” value in the assay with Kochia scoparia (KCHSC) [1] amounted to 90%. Besides, in the assay with Stellaria media (STEME) [10], the “pre-emergence activity against STEME in %” value worked out at 90%. In addition, in assay [4], the “pre-emergence activity against ECHCG in %” value is reported as 100%.

In the case of `CCS(=O)(=O)N1CSc2cc(Br)c(-c3cccc(Cl)c3F)nc21` [Example I-132], the “post-emergence activity against AMARE in %” value in [6] is given as 90%. For the same compound, the “post-emergence activity against VERPE in %” value with Veronica persica (VERPE) [13] was found to be 90%. Moreover, the “pre-emergence activity against VERPE in %” value in the assay on Veronica persica (VERPE) [11] came out at 90%.
